Data on 19 compounds can be found in US8268859B2, “Glucocorticoid mimetics, methods of making them, pharmaceutical compositions and uses thereof” (Boehringer Ingelheim International GmbH, priority 2008, dated 2012).

One test has as its target human recombinant CYP3A4 (Homo sapiens, UniProt P08684). As to the kind of experiment: Cytochrome P450 inhibition assay (substrate 7-benzyloxy-4-(trifluoromethyl)coumarin).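 Further: compounds preincubated at least 10 min at 37 °C before adding enzyme plus substrate, reaction run 30 min at 37 °C, ketoconazole standard curve on every plate.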 The test is classed as in vitro ADME. Conditions: Table 1; read-out: CYP3A4 IC50.
The target in test [1] is T1, human glucocorticoid receptor (GR) complex (Homo sapiens, UniProt P04150).
T1 construct: made in house; host or cells: insect expression system (baculovirus lysate)
T1 sequence (P04150 1-777): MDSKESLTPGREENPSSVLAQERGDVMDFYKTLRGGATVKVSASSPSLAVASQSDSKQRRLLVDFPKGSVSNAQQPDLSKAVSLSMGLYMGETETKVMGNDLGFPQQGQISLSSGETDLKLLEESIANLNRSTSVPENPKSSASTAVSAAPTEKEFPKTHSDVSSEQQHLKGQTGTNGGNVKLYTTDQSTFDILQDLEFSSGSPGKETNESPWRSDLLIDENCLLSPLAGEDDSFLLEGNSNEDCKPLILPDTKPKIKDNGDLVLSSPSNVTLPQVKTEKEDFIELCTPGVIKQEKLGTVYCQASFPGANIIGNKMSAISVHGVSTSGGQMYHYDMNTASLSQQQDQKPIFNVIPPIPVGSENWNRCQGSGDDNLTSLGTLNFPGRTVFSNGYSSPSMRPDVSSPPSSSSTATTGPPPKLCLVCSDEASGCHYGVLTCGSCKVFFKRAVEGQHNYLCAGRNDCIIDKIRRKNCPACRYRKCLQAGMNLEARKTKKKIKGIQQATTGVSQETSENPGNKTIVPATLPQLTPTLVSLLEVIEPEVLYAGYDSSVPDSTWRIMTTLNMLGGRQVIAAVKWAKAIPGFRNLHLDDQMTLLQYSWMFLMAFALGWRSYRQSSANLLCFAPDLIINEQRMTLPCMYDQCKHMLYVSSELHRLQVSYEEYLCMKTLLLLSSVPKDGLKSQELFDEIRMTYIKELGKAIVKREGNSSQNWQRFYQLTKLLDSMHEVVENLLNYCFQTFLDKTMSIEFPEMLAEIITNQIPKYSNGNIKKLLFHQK
As to the kind of experiment: Glucocorticoid receptor fluorescence polarization competitive binding assay.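 Further: GR complex expressed in an insect system, wells lacking compound give full signal, excess unlabeled dexamethasone defines the blank, IC50 from logistic curve fit of polarization.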

[2] abbreviates: Table 1, competition with TAMRA-labeled dexamethasone, read-out: GR IC50.

The term IC50 denotes the concentration that inhibits the measured activity by half.

Like-named read-outs stand apart in the source and are kept apart here.

Sequence of human recombinant CYP3A4 (P08684 whole entry): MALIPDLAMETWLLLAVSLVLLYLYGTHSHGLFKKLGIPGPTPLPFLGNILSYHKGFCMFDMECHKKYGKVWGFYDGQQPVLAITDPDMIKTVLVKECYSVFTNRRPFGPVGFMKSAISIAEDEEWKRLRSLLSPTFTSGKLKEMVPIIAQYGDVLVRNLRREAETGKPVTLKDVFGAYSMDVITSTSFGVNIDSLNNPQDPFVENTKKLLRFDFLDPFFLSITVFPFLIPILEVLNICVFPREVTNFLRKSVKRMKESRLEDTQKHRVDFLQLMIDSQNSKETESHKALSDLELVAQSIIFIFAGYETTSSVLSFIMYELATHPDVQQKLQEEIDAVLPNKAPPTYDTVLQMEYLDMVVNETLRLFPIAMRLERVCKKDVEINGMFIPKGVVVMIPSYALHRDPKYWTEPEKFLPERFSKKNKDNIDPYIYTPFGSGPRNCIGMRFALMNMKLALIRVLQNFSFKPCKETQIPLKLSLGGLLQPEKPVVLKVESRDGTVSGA

`CC(C)(CC(O)(Cc1cc2cc(S(C)(=O)=O)ncc2[nH]1)C(F)(F)F)c1cccc2c1S(=O)(=O)C=C2` (centres unmarked) [4-(1,1-Dioxo-1H-1λ^6-benzo[b]thiophen-7-yl)-1,1,1-trifluoro-2-(5-methanesulfonyl-1H-pyrrolo[2,3-c]pyridin-2-ylmethyl)-4-methylpentan-2-ol]: the IC50 at human recombinant CYP3A4 worked out at 7400 nM; in test [1] (setting [2]), 89 nM.

Consider `CCCS(=O)(=O)c1cc2cc(CC(O)(CC(C)(C)c3ccccc3S(C)(=O)=O)C(F)(F)F)[nH]c2cn1` (centres unmarked) [1,1,1-Trifluoro-4-(2-methanesulfonylphenyl)-4-methyl-2-[5-(propane-1-sulfonyl)-1H-pyrrolo[2,3-c]pyridin-2-ylmethyl]pentan-2-ol], for which the figures for the IC50 (on human recombinant CYP3A4; in test [1]) were 1600 nM and 24 nM, respectively.

Regarding `CC(C)(C[C@@](O)(Cc1cc2nc(S(C)(=O)=O)ccc2[nH]1)C(F)(F)F)c1ccc(F)cc1C(N)=O` [5-Fluoro-2-[(R)-4,4,4-trifluoro-3-hydroxy-3-(5-methanesulfonyl-1H-pyrrolo[3,2-b]pyridin-2-ylmethyl)-1,1-dimethyl-butyl]benzamide], the half-inhibitory concentration (IC50) is 7000 nM on human recombinant CYP3A4 and 27 nM in test [1].

For `CC(C)(C[C@@](O)(Cc1cc2nc(S(C)(=O)=O)ncc2[nH]1)C(F)(F)F)c1ccc(F)cc1C(N)=O` [5-Fluoro-2-[(R)-4,4,4-trifluoro-3-hydroxy-3-(2-methanesulfonyl-5H-pyrrolo[3,2-d]pyrimidin-6-ylmethyl)-1,1-dimethylbutyl]benzamide], the IC50 on human recombinant CYP3A4 was found to be 11000 nM; in test [1] (setting [2]) it was 210 nM.

Turning to `CCCS(=O)(=O)c1cc2cc(CC(O)(CC(C)(C)c3cc(Cl)ccc3S(C)(=O)=O)C(F)(F)F)[nH]c2cn1` (centres unmarked) [4-(5-Chloro-2-methanesulfonylphenyl)-1,1,1-trifluoro-4-methyl-2-[5-(propane-1-sulfonyl)-1H-pyrrolo[2,3-c]pyridin-2-ylmethyl]pentan-2-ol], the IC50 was 900 nM at human recombinant CYP3A4 and 14 nM in test [1] (setting [2]).

In the case of `CC(C)(CC(O)(Cc1cc2cc(S(C)(=O)=O)ncc2[nH]1)C(F)(F)F)c1ccccc1Br` (centres unmarked) [4-(2-Bromophenyl)-1,1,1-trifluoro-2-(5-methanesulfonyl-1H-pyrrolo[2,3-c]pyridin-2-ylmethyl)-4-methylpentan-2-ol], the results for the IC50 (on human recombinant CYP3A4; in test [1] (setting [2])) were 23000 nM and 7 nM, respectively.

As to `CC(C)S(=O)(=O)c1cc2cc(CC(O)(CC(C)(C)c3ccc(F)cc3S(C)(=O)=O)C(F)(F)F)[nH]c2cn1` (centres unmarked) [1,1,1-Trifluoro-4-(4-fluoro-2-methanesulfonylphenyl)-4-methyl-2-[5-(propane-2-sulfonyl)-1H-pyrrolo[2,3-c]pyridin-2-ylmethyl]pentan-2-ol], the IC50 at human recombinant CYP3A4 amounted to 19000 nM; in test [1] (setting [2]) it was 53 nM.

As for `CC(C)(CC(O)(Cc1cc2nc(S(C)(=O)=O)ccc2[nH]1)C(F)(F)F)c1cccc(F)c1S(C)(=O)=O` (centres unmarked) [1,1,1-Trifluoro-4-(3-fluoro-2-methanesulfonylphenyl)-2-(5-meethanesulfonyl-1H-pyrrolo[3,2-b]pyridin-2-ylmethyl)-4-methylpentan-2-ol], the IC50 at human recombinant CYP3A4 came out at 12000 nM; in test [1] (setting [2]), 65 nM.

For `CC(C)(CC(O)(Cc1cc2nc(S(C)(=O)=O)ccc2[nH]1)C(F)(F)F)c1cc(Cl)ccc1S(C)(=O)=O` (centres unmarked) [4-(5-Chloro-2-methanesulfonylphenyl)-1,1,1-trifluoro-2-(5-methanesulfonyl-1H-pyrrolo[3,2-b]pyridin-2-ylmethyl)-4-methylpentan-2-ol], the values for the IC50 (on human recombinant CYP3A4; in test [1]) were 4100 nM and 8 nM, respectively.

Take `CC(C)S(=O)(=O)c1cc2cc(CC(O)(CC(C)(C)c3cccc(F)c3S(C)(=O)=O)C(F)(F)F)[nH]c2cn1` (centres unmarked) [1,1,1-Trifluoro-4-(3-fluoro-2-methanesulfonylphenyl)-4-methyl-2-[5-(propane-2-sulfonyl)-1H-pyrrolo[2,3-c]pyridin-2-ylmethyl]pentan-2-ol]: the IC50 is above 30000 nM at human recombinant CYP3A4 and 210 nM in test [1] (setting [2]).

Turning to `CCS(=O)(=O)c1cc2cc(C[C@](O)(CC(C)(C)c3cc(Cl)cc4c3OCC4)C(F)(F)F)[nH]c2cn1` [(R)-4-(5-Chloro-2,3-dihydrobenzofuran-7-yl)-2-(5-ethanesulfonyl-1H-pyrrolo[2,3-c]pyridin-2-ylmethyl)-1,1,1-trifluoro-4-methylpentan-2-ol], the IC50 at human recombinant CYP3A4 is 1800 nM; in test [1] (setting [2]) it was 7 nM.

`CC(C)(CC(O)(Cc1cc2cc(S(C)(=O)=O)ncc2[nH]1)C(F)(F)F)c1cccc2ccsc12` (centres unmarked) [4-Benzo[b]thiophen-7-yl-1,1,1-trifluoro-2-(5-methanesulfonyl-1H-pyrrolo[2,3-c]pyridin-2-ylmethyl)-4-methylpentan-2-ol]: the results for the half-maximal inhibitory concentration (IC50) (on human recombinant CYP3A4; in test [1]) were 2700 nM and 10 nM, respectively.

Turning to `CC(C)(C[C@@](O)(Cc1cc2nc(S(C)(=O)=O)ccc2[nH]1)C(F)(F)F)c1cccc(Br)c1` [(R)-4-(3-Bromophenyl)-1,1,1-trifluoro-2-(5-methanesulfonyl-1H-pyrrolo[3,2-b]pyridin-2-ylmethyl)-4-methylpentan-2-ol], the figures for the IC50 (at human recombinant CYP3A4; in test [1] (setting [2])) were 15000 nM and 14 nM, respectively.

Turning to `CCS(=O)(=O)c1cc2cc(CC(O)(CC(C)(C)c3cccc4c3S(=O)(=O)C=C4)C(F)(F)F)[nH]c2cn1` (centres unmarked) [4-(1,1-Dioxo-1H-1λ^6-benzo[b]thiophen-7-yl)-2-(5-ethanesulfonyl-1H-pyrrolo[2,3-c]pyridin-2-ylmethyl)-1,1,1-trifluoro-4-methylpentan-2-ol], the IC50 at human recombinant CYP3A4 came to 4100 nM; in test [1] (setting [2]), 58 nM.

Consider `CC(C)(C[C@@](O)(Cc1cc2cc(S(C)(=O)=O)ncc2[nH]1)C(F)(F)F)c1cc(Cl)cc2c1OCC2` [drawing 3, (R)-4-(5-Chloro-2,3-dihydrobenzofuran-7-yl)-1,1,1-trifluoro-2-(5-methanesulfonyl-1H-pyrrolo[2,3-c]pyridin-2-ylmethyl)-4-methylpentan-2-ol], for which the IC50 on human recombinant CYP3A4 was determined as 6500 nM; in test [1] (setting [2]) it was 6 nM.

In the case of `CC(C)S(=O)(=O)c1cc2cc(CC(O)(CC(C)(C)c3ccccc3S(C)(=O)=O)C(F)(F)F)[nH]c2cn1` (centres unmarked) [1,1,1-Trifluoro-4-(2-methanesulfonylphenyl)-4-methyl-2-[5-(propane-2-sulfonyl)-1H-pyrrolo[2,3-c]pyridin-2-ylmethyl]pentan-2-ol], the IC50 on human recombinant CYP3A4 worked out at 22000 nM; in test [1] (setting [2]), 97 nM.

Take `CC(C)S(=O)(=O)c1cc2cc(CC(O)(CC(C)(C)c3cc(Cl)ccc3S(C)(=O)=O)C(F)(F)F)[nH]c2cn1` (centres unmarked) [4-(5-Chloro-2-methanesulfonylphenyl)-1,1,1-trifluoro-4-methyl-2-[5-(propane-2-sulfonyl)-1H-pyrrolo[2,3-c]pyridin-2-ylmethyl]pentan-2-ol]: the IC50 on human recombinant CYP3A4 stood at 6000 nM; in test [1] (setting [2]), 17 nM.

`CC(C)(CC(O)(Cc1cc2cc(S(C)(=O)=O)ncc2[nH]1)C(F)(F)F)c1cccc(F)c1S(C)(=O)=O` (centres unmarked) [1,1,1-Trifluoro-4-(3-fluoro-2-methanesulfonylphenyl)-2-(5-methanesulfonyl-1H-pyrrolo[2,3-c]pyridin-2-ylmethyl)-4-methylpentan-2-ol]: the IC50 at human recombinant CYP3A4 was above 30000 nM; in test [1] (setting [2]), 62 nM.

Regarding `CC(C)(C[C@@](O)(Cc1cc2cc(S(C)(=O)=O)ncc2[nH]1)C(F)(F)F)c1cccc(Br)c1` [(R)-4-(3-Bromophenyl)-1,1,1-trifluoro-2-(5-methanesulfonyl-1H-pyrrolo[2,3-c]pyridin-2-ylmethyl)-4-methylpentan-2-ol], the figures for the IC50 (at human recombinant CYP3A4; in test [1]) were 20000 nM and 9 nM, respectively.
